Results as given in article PMC10227065, “Structures of Tetrahymena thermophila respiratory megacomplexes on the tubular mitochondrial cristae” (Nature Communications, 2023).

Key:
[1] = target: T1, Tt-CII (SDHA/SDHB hydrophilic head) (Tetrahymena thermophila, UniProt Q23DI3); assay: cryo-EM structure; type: binding
T1 construct: gene TTHERM_00047080

[2] = target: T1, Tt-CII (SDHA/SDHB hydrophilic head); assay: cyt c reduction/oxidation, […] nm; type: biochemical; conditions: 5 mM malonate; 5 mM succinate, 50 uM decylubiquinone, 100 uM Tt-cyt c, 10 nM megacomplex, pH 7.4, 0.1% digitonin, room temperature
[3] = target: T2, NDUA9 (Tt-CI subunit) (Tetrahymena thermophila, UniProt I7MLH2); assay: cryo-EM structure; type: binding; conditions: printed only as NDP group (PDB ligand code)
T2 construct: gene TTHERM_00557760
T2 sequence (I7MLH2 27-362): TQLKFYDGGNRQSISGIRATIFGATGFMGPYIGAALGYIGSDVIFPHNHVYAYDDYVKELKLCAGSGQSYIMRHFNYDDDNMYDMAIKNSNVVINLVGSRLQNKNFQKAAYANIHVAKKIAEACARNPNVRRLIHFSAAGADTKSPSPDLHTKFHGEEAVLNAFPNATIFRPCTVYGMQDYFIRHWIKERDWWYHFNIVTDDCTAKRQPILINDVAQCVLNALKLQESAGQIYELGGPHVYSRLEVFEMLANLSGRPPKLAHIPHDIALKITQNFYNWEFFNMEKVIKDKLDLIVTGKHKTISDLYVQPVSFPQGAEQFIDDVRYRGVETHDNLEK
Text: cryo-EM structure on NDUA9 (Tt-CI subunit) | NDP group of NDUA9 and the interfacial heme […]1

T1 sequence (Q23DI3 1-636): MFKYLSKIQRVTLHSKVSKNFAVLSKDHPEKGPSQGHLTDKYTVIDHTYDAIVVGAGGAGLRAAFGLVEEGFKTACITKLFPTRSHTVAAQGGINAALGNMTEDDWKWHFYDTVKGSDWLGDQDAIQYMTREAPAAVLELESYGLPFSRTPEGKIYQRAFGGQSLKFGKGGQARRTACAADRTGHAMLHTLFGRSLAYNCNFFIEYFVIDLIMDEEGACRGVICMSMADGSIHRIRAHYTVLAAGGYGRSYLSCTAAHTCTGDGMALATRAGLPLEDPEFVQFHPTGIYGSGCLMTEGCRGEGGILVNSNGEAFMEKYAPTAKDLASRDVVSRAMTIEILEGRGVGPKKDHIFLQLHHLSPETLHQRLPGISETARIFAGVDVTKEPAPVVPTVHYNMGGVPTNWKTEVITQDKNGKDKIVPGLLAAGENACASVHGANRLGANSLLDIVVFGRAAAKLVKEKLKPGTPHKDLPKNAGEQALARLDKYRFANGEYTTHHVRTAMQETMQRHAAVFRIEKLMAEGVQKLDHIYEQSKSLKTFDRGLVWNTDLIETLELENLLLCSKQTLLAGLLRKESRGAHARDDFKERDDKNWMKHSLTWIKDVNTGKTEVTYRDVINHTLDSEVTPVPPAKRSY
T1 sequence (I7M403 21-312 partner): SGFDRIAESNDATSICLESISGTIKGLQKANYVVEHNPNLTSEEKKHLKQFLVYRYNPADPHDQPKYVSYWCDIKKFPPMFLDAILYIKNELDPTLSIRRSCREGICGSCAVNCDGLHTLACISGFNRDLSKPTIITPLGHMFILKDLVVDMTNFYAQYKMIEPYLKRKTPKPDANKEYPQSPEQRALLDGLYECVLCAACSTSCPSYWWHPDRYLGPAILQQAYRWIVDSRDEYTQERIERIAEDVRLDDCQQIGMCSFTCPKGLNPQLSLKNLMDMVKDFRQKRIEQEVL

Compound: Cc1cc2nc3c(=O)[nH]c(=O)nc-3n(C[C@H](O)[C@H](O)[C@H](O)COP(=O)(O)OP(=O)(O)OC[C@H]3O[C@@H](n4cnc5c(N)ncnc54)[C@H](O)[C@@H]3O)c2cc1C [FAD]
- cryo-EM structure [1]: highly conserved to known CII structures with the FAD and three iron-sulfur clusters in place

Compound: O=C(O)CC(=O)O [malonate]
- cyt c reduction/oxidation, 550 nm [2]: NADH and succinate-dependent activities could be inhibited by CI inhibitor rotenone and CII inhibitor malonate

Compound: NC(=O)C1=CN([C@@H]2O[C@H](COP(=O)(O)OP(=O)(O)OC[C@H]3O[C@@H](n4cnc5c(N)ncnc54)[C@H](OP(=O)(O)O)[C@@H]3O)[C@@H](O)[C@H]2O)C=CC1 [NDP]
- cryo-EM structure [3]: NDP group of NDUA9 and the interfacial heme c SDHTT1
